# ChEMBL document CHEMBL5325431, “Synthesis of thieno[3,2-e]pyrrolo[1,2-a]pyrimidine derivatives and their precursors containing 2-aminothiophenes fragments as anticancer agents for therapy of pulmonary metastatic melanoma” (Eur J Med Chem, 2023)
# Columns and labels:
# [1] = test system: B16-F10; assay: Cytotoxicity against mouse B16-F10 cells assessed as cell survival incubated for 24 hrs by alamarblue staining based analysis; assay type: functional; details: B16-F10, 24 h
# [2] = Cytotoxicity against NF2-deficient mouse MEF cells assessed as cell survival incubated for 24 hrs by alamarblue staining based analysis; assay type: toxicity
# [3] = test system: JAR; assay: Cytotoxicity against human JAR cells assessed as inhibition of cell growth; assay type: functional, cell-based
# [4] = test system: MCF7; assay: Cytotoxicity against human MCF7 cells assessed as inhibition of cell growth; assay type: functional, cell-based
# [5] = test system: B16-F10; assay: Antitumor activity against metastatic mouse B16-F10 cells implanted in C57BL/6 mouse assessed as number of lung metastases at 4.6 to 42 mg/kg, ip administered every 3rd day for 22 days measured on day 23 by histological analysis (reference value: 223 +/- 12); assay type: functional; details: dose 4.6-42 mg/kg, time 23 day
# [6] = test system: B16-F10; assay: Antitumor activity against metastatic mouse B16-F10 cells implanted in C57BL/6 mouse assessed as number of lung metastases at 9 to 9.5 mg/kg, ip administered for 15 days by histological analysis (reference value: 175 +/- 10); assay type: functional; details: dose 9-9.5 mg/kg, time 15 day
# [7] = test system: B16-F10; assay: Antitumor activity against metastatic mouse B16-F10 cells implanted in C57BL/6 mouse assessed as number of lung metastases at 9 to 9.5 mg/kg, ip administered for 22 days by histological analysis (reference value: 223 +/- 12); assay type: functional; details: dose 9-9.5 mg/kg, time 22 day
# [8] = test system: B16-F10; assay: Antitumor activity against metastatic mouse B16-F10 cells implanted in C57BL/6 mouse assessed as number of lung metastases at 9 to 9.5 mg/kg, ip administered for 19 days by histological analysis (reference value: 190 +/- 9); assay type: functional; details: dose 9-9.5 mg/kg, time 19 day
# [9] = test system: B16-F10; assay: Antitumor activity against metastatic mouse B16-F10 cells implanted in C57BL/6 mouse assessed as number of lung metastases at 9 to 9.5 mg/kg, ip administered for 12 days by histological analysis (reference value: 150 +/- 7); assay type: functional; details: dose 9-9.5 mg/kg, time 12 day
# [10] = test system: U-87 MG; assay: Cytotoxicity against human U-87 MG cells assessed as inhibition of cell growth; assay type: functional, cell-based, U-87MG ATCC
# [11] = test system: HCT-116; assay: Cytotoxicity against human HCT-116 cells assessed as inhibition of cell growth; assay type: functional, cell-based
Structure (SMILES),IC50 [1] [µM],IC50 at 24 h [2] [µM],also measured
CCOC(=O)C1=C(N)N(c2sc3c(c2C(=O)OCC)CCCCC3)/C(=C/C(=O)c2ccccc2)C1=O,36.2,> 100,
CCOC(=O)c1c(NC(=C\C(=O)c2ccc(C)cc2)/C(O)=C(\C#N)C(N)=O)sc(C)c1C,17.9,> 100,
CCOC(=O)/C(C#N)=C(O)/C(=C/C(=O)c1ccccc1)Nc1sc2c(c1C(=O)OCC)CCCC2,38.6,> 100,
N#CC1=C2NC(=O)c3c(sc4c3CCCCCC4)N2/C(=C/C(=O)c2ccccc2)C1=O,12.6,> 100,
CCOC(=O)C1=C2NC(=O)c3c(sc4c3CCCC4)N2/C(=C/C(=O)c2ccc(OC)cc2OC)C1=O,32.6,> 100,
CCOC(=O)c1c(N2C(N)=C(C(N)=O)C(=O)/C2=C\C(=O)c2ccccc2)sc2c1CCCCC2,22.2,> 100,
CCOC(=O)C1=C(N)N(c2sc(C)c(C)c2C(=O)OCC)/C(=C/C(=O)c2ccccc2)C1=O,41.2,> 100,
CCOC(=O)c1c(N/C(=C\C(=O)c2ccc(OC)cc2)C(O)=C(C#N)C#N)sc2c1CCCC2,> 100,> 100,
CCOC(=O)C1=C(Nc2ccccc2)S/C(=C\C2CCCCC2)C1=O,,,IC50 [3]: 95.2 µM; IC50 [4]: 45.3 µM
CCOC(=O)c1c(NC(=C\C(=O)c2ccc(C)cc2)/C(O)=C(\C#N)C(N)=O)sc2c1CCCC2,11.9,> 100,
CCOC(=O)C1=C2NC(=O)c3c(sc4c3CCCC4)N2/C(=C/C(=O)c2ccc(C)cc2)C1=O,40.5,> 100,
CCOC(=O)C1=C(N)N(c2sc3c(c2C(=O)OCC)CCCC3)/C(=C/C(=O)c2ccc(C)cc2)C1=O,68.4,> 100,
NC(=O)C1=C2NC(=O)c3c(sc4c3CCCC4)N2/C(=C/C(=O)c2ccccc2)C1=O,56.9,> 100,
CCOC(=O)c1c(N2C(N)=C(C(N)=O)C(=O)/C2=C\C(=O)c2ccc(Cl)cc2)sc2c1CCCC2,56.5,> 100,
CCOC(=O)C1=C(N)N(c2sc3c(c2C(=O)OCC)CCCC3)/C(=C/C(=O)c2cccs2)C1=O,57,> 100,
CCOC(=O)C1=C(N)N(c2sc3c(c2C(=O)OCC)CCCC3)/C(=C/C(=O)c2ccc(OC)cc2OC)C1=O,54.1,> 100,
Cc1ccc(C(=O)/C=C2\C(=O)C(C#N)=C3NC(=O)c4c(sc5c4CCCCC5)N32)cc1,8.8,> 100,
CCOC(=O)C1=C2NC(=O)c3c(sc(C)c3C)N2/C(=C/C(=O)c2ccc(Cl)cc2)C1=O,64.6,> 100,
CCOC(=O)c1c(N2C(N)=C(C(N)=O)C(=O)/C2=C\C(=O)c2ccc(OC)cc2OC)sc2c1CCCC2,48.2,> 100,
CC(=O)O[C@H]1C(=O)[C@@]2(C)[C@H]([C@H](OC(=O)c3ccccc3)[C@]3(O)C[C@H](OC(=O)[C@H](O)[C@@H](NC(=O)c4ccccc4)c4ccccc4)C(C)=C1C3(C)C)[C@]1(OC(C)=O)CO[C@@H]1C[C@@H]2O [PACLITAXEL],,,Activity [5]: 50; Activity [6]: 125; Activity [7]: 80; Activity [8]: 97; Activity [9]: 158
CCOC(=O)C1=C2NC(=O)c3c(sc(C)c3C)N2/C(=C/C(=O)c2ccc(C)cc2)C1=O,43.6,> 100,
CCOC(=O)C1=C2NC(=O)c3c(sc4c3CCCC4)N2/C(=C/C(=O)c2cccs2)C1=O,58.6,> 100,

Structure (SMILES),IC50 [1] [µM],IC50 at 24 h [2] [µM],also measured
CCOC(=O)C1=C(N)N(c2sc3c(c2C(=O)OCC)CCCCC3)/C(=C/C(=O)c2ccc(C)cc2)C1=O,25.2,> 100,
CCOC(=O)c1c(N/C(=C\C(=O)c2ccc(OC)cc2)C(O)=C(C#N)C#N)sc2c1CCCCC2,> 100,> 100,
CCOC(=O)c1c(N)sc(C(=O)Nc2ccccc2)c1-c1ccccc1,,,IC50 [10]: 7.4 µM
CCOC(=O)c1c(N/C(=C\C(=O)c2ccc(C)cc2)C(O)=C(C#N)C#N)sc2c1CCCCC2,> 100,> 100,
CCOC(=O)c1c(N2C(N)=C(C(N)=O)C(=O)/C2=C\C(=O)c2ccccc2)sc2c1CCCC2,52.1,> 100,
NC(=O)C1=C2NC(=O)c3c(sc4c3CCCCC4)N2/C(=C/C(=O)c2ccccc2)C1=O,24.5,> 100,
CCOC(=O)C1=C(N)N(c2sc(C)c(C)c2C(=O)OCC)/C(=C/C(=O)c2ccc(OC)cc2)C1=O,41.4,> 100,
CCOC(=O)c1c(N2C(N)=C(C#N)C(=O)/C2=C\C(=O)c2ccc(OC)cc2)sc2c1CCCCC2,9.1,> 100,
CCOC(=O)C1=C(N)N(c2sc(C)c(C)c2C(=O)OCC)/C(=C/C(=O)c2ccc(Cl)cc2)C1=O,57.3,> 100,
CCOC(=O)c1c(NC(=C\C(=O)c2ccccc2)/C(O)=C(\C#N)C(N)=O)sc2c1CCCC2,14.1,> 100,
CCOC(=O)C1=C2NC(=O)c3c(sc4c3CCCC4)N2/C(=C/C(=O)c2ccccc2)C1=O,46.9,> 100,
CCOC(=O)C1=C2NC(=O)c3c(sc4c3CCCC4)N2/C(=C/C(=O)c2ccc(Cl)cc2)C1=O,54.4,> 100,
CCOC(=O)C1=C2NC(=O)c3c(sc4c3CCCCCC4)N2/C(=C/C(=O)c2ccccc2)C1=O,23.6,> 100,
O=C(CSc1nc2sc3c(c2c(=O)n1Cc1ccccc1)CCCC3)NNC(=S)Nc1ccccc1,,,IC50 [11]: 5.33 µM
CCOC(=O)/C(C#N)=C(O)/C(=C/C(=O)c1ccc(C)cc1)Nc1sc2c(c1C(=O)OCC)CCCC2,28.9,> 100,
CCOC(=O)c1c(N2C(N)=C(C(N)=O)C(=O)/C2=C\C(=O)c2ccc(OCC)cc2)sc2c1CCCC2,> 100,> 100,
CCOC(=O)/C(C#N)=C(O)/C(=C/C(=O)c1ccc(OC)cc1)Nc1sc2c(c1C(=O)OCC)CCCC2,19.7,> 100,
CCOC(=O)c1c(N2C(N)=C(C(N)=O)C(=O)/C2=C\C(=O)c2ccc(OC)cc2)sc2c1CCCC2,48.1,> 100,
CCOC(=O)C1=C(N)N(c2sc3c(c2C(=O)OCC)CCCC3)/C(=C/C(=O)c2ccc(OC)cc2)C1=O,> 100,> 100,
CCOC(=O)C1=C(N)N(c2sc3c(c2C(=O)OCC)CCCC3)/C(=C/C(=O)c2ccccc2)C1=O,46.7,> 100,
CCOC(=O)/C(C#N)=C(O)/C(=C/C(=O)c1ccc(C)cc1)Nc1sc(C)c(C)c1C(=O)OCC,44.2,> 100,
COc1ccc(C(=O)/C=C2\C(=O)C(C(N)=O)=C3NC(=O)c4c(sc5c4CCCC5)N32)cc1,42.6,> 100,
